Results from US8598155B2, “Imidazo[5,1-f][1,2,4]triazines for the treatment of neurological disorders” (Pfizer Inc., priority 2011, dated 2013).

Biological target: human full-length PDE2A3 enzyme (Homo sapiens (Human), UniProt O00408)
Conditions: read-out: IC50 (assay validation control); PDE2A3 SPA validation; IC50 values obtained were within 3× of literature values
Description: Measurement of Recombinant Human PDE2A3 Inhibition by SPA Technology
In the present assay, the activity of the test substances on human full-length PDE2A3 enzyme was determined using the [^3H]-cGMP scintillation proximity assay (SPA) modified from the Amersham TRKQ7100 instructions (GE Healthcare, USA). PDE2A3 protein was obtained from FLAG purification of sf21 insect cells using standard affinity purification procedures for this tag (anti-FLAG M2, Sigma Aldrich). Briefly, the SPA assays were performed using PDE SPA yttrium silicate beads (Perkin Elmer RPNQ0024) which bind preferentially to the linear nucleotide, GMP, compared to the cyclic nucleotide, cGMP. The, ^3H-GMP product was detected using a Wallac MicroBeta scintillation counter. The reaction time was chosen with respect to the amount of time in which 10-20% of substrate was hydrolyzed by the enzyme.
The corresponding IC50 values of the compounds for the inhibition of PDE activities are determined from the concentration-effect curves by means of non-linear regression.

Chain of human full-length PDE2A3 enzyme (O00408 whole entry): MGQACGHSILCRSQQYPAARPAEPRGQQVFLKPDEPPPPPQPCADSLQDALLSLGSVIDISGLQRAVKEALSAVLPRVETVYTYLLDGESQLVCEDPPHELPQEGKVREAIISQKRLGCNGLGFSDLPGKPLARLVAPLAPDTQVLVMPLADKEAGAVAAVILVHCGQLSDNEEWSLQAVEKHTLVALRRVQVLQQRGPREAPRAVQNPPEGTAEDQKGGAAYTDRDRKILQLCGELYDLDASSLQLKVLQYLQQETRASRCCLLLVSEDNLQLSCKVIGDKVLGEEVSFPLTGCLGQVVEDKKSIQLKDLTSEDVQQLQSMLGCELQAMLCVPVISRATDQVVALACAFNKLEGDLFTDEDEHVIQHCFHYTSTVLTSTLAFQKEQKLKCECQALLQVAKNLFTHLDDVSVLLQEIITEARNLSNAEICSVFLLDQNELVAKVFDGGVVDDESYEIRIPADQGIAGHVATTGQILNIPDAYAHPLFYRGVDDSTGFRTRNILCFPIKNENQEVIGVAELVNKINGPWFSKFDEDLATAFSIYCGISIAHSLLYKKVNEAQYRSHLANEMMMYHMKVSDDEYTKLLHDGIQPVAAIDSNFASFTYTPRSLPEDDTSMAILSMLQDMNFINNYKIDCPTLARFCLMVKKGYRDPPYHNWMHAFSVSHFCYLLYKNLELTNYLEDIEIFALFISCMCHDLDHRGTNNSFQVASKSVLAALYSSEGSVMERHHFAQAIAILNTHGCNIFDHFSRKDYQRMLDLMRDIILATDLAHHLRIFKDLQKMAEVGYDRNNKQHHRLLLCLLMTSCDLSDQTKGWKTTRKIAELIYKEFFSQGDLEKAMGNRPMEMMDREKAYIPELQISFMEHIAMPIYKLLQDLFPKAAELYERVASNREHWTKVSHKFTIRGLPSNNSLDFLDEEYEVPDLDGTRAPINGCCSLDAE

Structure (SMILES): CCCCCC[C@@H]([C@@H](C)O)n1cnc2c(N)ncnc21 (racemic) [EHNA]
- IC50: 1.7 µM
